In the supplement of paper PMC4862054:

How the values were obtained:
Conditions in all cases: incubation time: 72 h
BT-549 [1] = assay: normalised response (% of control), CellTiter-Glo; higher = more viable cells (100 = DMSO, 0 = benzethonium chloride kill control)
Experimental: (§1)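 DSRT, 72 h incubation, CellTox Green / CellTiter-Glo readout. Signal is normalised to DMSO and benzethonium chloride controls. Value is the normalised response at the highest dose.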

DU-4475 [2] = assay: as above
Experimental: as §1

CAL-51 [3] = assay: as above
Experimental: as §1

CAL-148 [4] = assay: as above
Experimental: as §1

HDQ-P1 [5] = assay: as above
Experimental: as §1

CAL-85-1 [6] = assay: as above
Experimental: as §1

Hs578T [7] = assay: as above
Experimental: as §1

MDA-MB-436 [8] = assay: as above
Experimental: as §1

BT-474 [9] = assay: as above
Experimental: as §1

MDA-MB-468 [10] = assay: as above
Experimental: as §1

MDA-MB-231 [11] = assay: as above
Experimental: as §1

MCF-10A [12] = assay: as above
Experimental: as §1

HCC1599 [13] = assay: as above
Experimental: as §1

SK-BR-3 = assay: as above
Experimental: as §1

HCC1937 [14] = assay: as above
Experimental: as §1

MDA-MB-453 [15] = assay: as above
Experimental: as §1

MFM-223 [16] = assay: as above
Experimental: as §1

CAL-120 [17] = assay: as above
Experimental: as §1

HCC1143 [18] = assay: as above
Experimental: as §1

BT-549 [19] = assay: normalised response (% of control), CellTox Green; higher = less cell death (100 = DMSO, 0 = benzethonium chloride kill control)
Method in brief: (§2)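 CellTox Green fluorescence (485/520 nm) and, after 10 min at room temperature, CellTiter-Glo luminescence were read from breast cancer cell lines incubated 72 h in 384-well plates. Cells were seeded as 20 µl suspension onto compound at 5 concentrations in 10-fold steps over a 10,000-fold range chosen per compound. Each plate was normalised to 0.1 % DMSO (100) and a positive kill control (0). Values are normalised signals, one per concentration.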

DU-4475 [20] = assay: as above
Method in brief: as §2

CAL-51 [21] = assay: as above
Method in brief: as §2

CAL-148 [22] = assay: as above
Method in brief: as §2

HDQ-P1 [23] = assay: as above
Method in brief: as §2

CAL-85-1 [24] = assay: as above
Method in brief: as §2

Hs578T [25] = assay: as above
Method in brief: as §2

MDA-MB-436 [26] = assay: as above
Method in brief: as §2

BT-474 [27] = assay: as above
Method in brief: as §2

MDA-MB-468 [28] = assay: as above
Method in brief: as §2

MDA-MB-231 [29] = assay: as above
Method in brief: as §2

MCF-10A [30] = assay: as above
Method in brief: as §2

HCC1599 [31] = assay: as above
Method in brief: as §2

HCC1937 [32] = assay: as above
Method in brief: as §2

MDA-MB-453 [33] = assay: as above
Method in brief: as §2

MFM-223 [34] = assay: as above
Method in brief: as §2

CAL-120 [35] = assay: as above
Method in brief: as §2

HCC1143 [36] = assay: as above
Method in brief: as §2

SMILES | normalised response (BT-549 [1]) | normalised response (DU-4475 [2]) | normalised response (CAL-51 [3]) | normalised response (CAL-148 [4]) | normalised response (HDQ-P1 [5]) | normalised response (CAL-85-1 [6]) | normalised response (Hs578T [7]) | normalised response (MDA-MB-436 [8]) | normalised response (BT-474 [9]) | normalised response (MDA-MB-468 [10]) | normalised response (MDA-MB-231 [11]) | normalised response (MCF-10A [12]) | normalised response (HCC1599 [13]) | normalised response (SK-BR-3) | normalised response (HCC1937 [14]) | normalised response (MDA-MB-453 [15]) | normalised response (MFM-223 [16]) | normalised response (CAL-120 [17]) | normalised response (HCC1143 [18]) | normalised response (BT-549 [19]) | normalised response (DU-4475 [20]) | normalised response (CAL-51 [21]) | normalised response (CAL-148 [22]) | normalised response (HDQ-P1 [23]) | normalised response (CAL-85-1 [24]) | normalised response (Hs578T [25]) | normalised response (MDA-MB-436 [26]) | normalised response (BT-474 [27]) | normalised response (MDA-MB-468 [28]) | normalised response (MDA-MB-231 [29]) | normalised response (MCF-10A [30]) | normalised response (HCC1599 [31]) | normalised response (HCC1937 [32]) | normalised response (MDA-MB-453 [33]) | normalised response (MFM-223 [34]) | normalised response (CAL-120 [35]) | normalised response (HCC1143 [36])
CCCCC(=O)OCC(=O)[C@]1(O)Cc2c(O)c3c(c(O)c2[C@@H](O[C@H]2C[C@H](NC(=O)C(F)(F)F)[C@H](O)[C@H](C)O2)C1)C(=O)c1c(OC)cccc1C3=O [Valrubicin] (5000 nM) | 13.4% | 0.06% | 0.2% | 0.81% | 45.4% | 37% | 34.1% | 35.4% | 40.1% | 22.8% | 47.7% | 9.91% | 24.8% | 8.77% | 50.2% | 22.1% | 40.8% | 59.3% | 19.9% | 208% | 147% | 106% | 119% | 134% | 170% | 193% | 147% | 112% | 548% | 205% | 157% | 196% | 183% | 150% | 118% | 128% | 176%
C=CC(=O)Nc1cc2c(Nc3ccc(F)c(Cl)c3)ncnc2cc1OCCCN1CCOCC1 [Canertinib] (10000 nM) | 4.73% | 74.1% | 3.06% | 42.9% | 1.5% | 3.6% | 17.4% | 22.2% | 15.9% | 2.49% | 5% | 0.13% | 66.4% | 24.4% | 14.5% | 25.5% | 26.4% | 26.6% | 24.3% | 55.1% | 89.5% | 5.47% | 65.4% | 37.8% | -11% | -21.7% | 87.1% | 55.4% | -36.9% | 13.5% | -28.8% | 111% | 80.3% | 87.6% | 26.9% | 31% | 84.5%
N#Cc1ccc(C(c2ccc(C#N)cc2)n2cncn2)cc1 [Letrozole] (10000 nM) | 96.3% | 98.8% | 128% | 101% | 103% | 97.8% | 97.7% | 102% | 91.7% | 97% | 91.5% | 106% | 85.2% | 101% | 100% | 96.8% | 99.8% | 98.8% | 97.7% | 102% | 101% | 116% | 97.9% | 107% | 94.2% | 66.7% | 93.9% | 102% | 70.7% | 105% | 103% | 101% | 94.5% | 98.1% | 100% | 101% | 127%
O=C(/C=C/c1cccnc1)NCCCCC1CCN(C(=O)c2ccccc2)CC1 [Daporinad] (1000 nM) | 103% | 4.62% | 138% | 51.5% | 15.9% | 14.3% | 6.81% | 37.5% | 19.9% | 0.79% | 19.2% | 9.14% | 0.76% | 110% | 17.5% | 14.8% | 4.89% | 14% | 13.2% | 91.1% | 101% | 108% | 98.8% | 108% | 93.5% | 73.1% | 97.3% | 97.5% | 49.6% | 117% | 93.1% | 90.5% | 67.6% | 99.5% | 88.1% | 101% | 105%
